Patent publication US20240360109A1 (SHANGHAI HANSOH BIOMEDICAL CO., LTD., priority 2021, published 2024)

Experiments:
[1] = test system: GLP-1R humanized C57BL/6 mice; assay: Intraperitoneal glucose tolerance (ipGTT) after single administration in GLP-1R humanized mice; type: in vivo; details: single administration 0.3 mg/kg, glucose 2 g/kg intraperitoneal 1 hour after administration, AUC 0-120 min, versus model control group
Text: To evaluate the effect of single administration of the compound of the present invention on blood glucose changes in the intraperitoneal glucose tolerance (ipGTT) experiment in GLP-1R humanized C57BL/6 mice.
C57BL/6_hGLP-1R, male, 5-8 weeks; Ultra-clean workbench; Electronic balance; Vitality type blood glucose meter; Glucose.
3.1 On the day before the experiment, the animals were randomly divided according to their weight, with 5 animals per group. All animals were deprived of food overnight and fasted for more than 16 hours from the time of administration.
3.2 0.2 g/mL glucose solution was prepared with pure water and filtered by 0.22 µm filter membrane for use.
3.3 On the testing day, the blood glucose value of each animal was measured successively by tail clipping method before administration, which was recorded as Baseline value;
Blood glucose test method: the mouse was placed in the immobilizer, the tail tip was disinfected with an alcohol cotton ball, then a little tail tip was cut off with scissors, the first drop of blood was discarded, and the second drop of blood was dropped onto the prepared blood glucose test strip to detect the blood glucose value;
3.4 The animals were administered according to animal weight, and the administration time was record for each animal. After 1 hour of administration, the blood glucose value of each animal was measured sequentially, and recorded as the 0 minute blood glucose value;
3.5 Subsequently, according to the weight of the day, the aminals were immediately injected with pure water or glucose solution into the abdominal cavity, with a volume of 10 mL/kg and a glucose dose of 2 g/kg;
3.6 The blood glucose values of each mouse were measured, and the time and data were recorded after 15, 30, 60, 90, and 120 minutes of pure water or glucose solution injection;
The blood glucose (BG)-time curve was drawn, and the area under the blood glucose-time curve was calculated. The calculation formula is as follows: […]
Note: BG0, BG15, BG30, BG60, BG90, and BG120 represent blood glucose values before glucose administration (0 min) and 15, 30, 60, 90, and 120 min after glucose administration, respectively.
The blood glucose decline rate of AUC at each time point was calculated according to the average blood glucose value and AUC of blood glucose at each time point.

[2] = test system: GLP-1R humanized C57BL/6 mice fed with high-fat diet; assay: Long-term administration: body weight and ingestion of GLP-1R humanized mice fed with high-fat diet; type: in vivo; details: HFD mice; for Weight (g)-D0 Mean: Day 0 (day of first administration, baseline), 10 mg/kg oral once a day; for Weight (g)-D10 Mean / Eeight (g)-D10 Mean: Day 10, 10 mg/kg oral once a day; for Body weight change(%)-D10 Mean: Day 10 versus Day 0, 10 mg/kg oral once a day
Text: The purpose of this test is to evaluate the effects of long-term administration of the compound on the body weight and ingestion of GLP-1R humanized C57BL/6 mice fed with high-fat diet.
C57BL/6_hGLP-1R, male, 5-8 weeks; 60% high-fat diet (HFD); Ultra-clean workbench; Electronic balance.
3.1 On the day of feeding with high-fat diet, C57BL/6 mice were randomly divided into two groups according to their weight. The first group was Blank, with 7 mice fed with normal control diet, while the remaining animals were in the modeling group, fed with high-fat diet, and continued until the end of the experiment.
3.2 At the 8th week of HFD feeding, the modeling group animals were randomly divided with 7 animals per group according to their weight. The first group was the Vehicle group (Vehicle: 0.5% CMC Na+1% Tween 80), which was given vehicle; The remaining group was the administration group; Administration regimen: Oral administration of the corresponding compound, administration cycle was 14 days, once a day for 14 days, with an administration dose of 10 mg/kg and an administration volume of 10 mL/kg. The Blank group continued to be fed with normal diet without any administration operation.
3.3 The day of administration was defined as Day 0.
3.4 During each administration, animals were weighed and data was recorded. Oral administration is performed according to body weight, with an administration volume of 10 mL/kg.
3.5 Starting from Day 0 of the experiment, the food intake of each group of mice was measured once every three days. Specifically, the feed was changed after each weighing and administration, and the added and remaining amounts were recorded.
3.6 On the end day of Day 14, all mice were euthanized sequentially according to grouping order, and the livers were dissected and weighed.
The weight and weight change rate of mice after administration were summarize and statistically analyzed. Weight change rate calculation: (BWt−BW0)/BW0×100%. BWt represents the weight of the mice on Day t of the experiment, and BW0 represents the weight of the mice on Day 0 of the experiment.
Calculation of food intake: (added amount (g)−remaining amount (g))/number of animals per cage, cumulative food intake is the sum of daily food intake of each animal during the administration period.
Experimental data were analyzed using GraphPad Prism software. The t-test method was used for comparison between the two groups. The one-way ANOVA method was used for comparisons between three or more groups.

human GLP-1 receptor = target: T1, human GLP-1 receptor (Homo sapiens, UniProt P43220); assay: Stimulation of human GLP1 receptor stable transgenic cell line CHO-K1/GLP-1R/CRE-luc to produce cAMP (HTRF); type: cell-based; details: cAMP production, CHO-K1/GLP-1R/CRE-luc cells, 30 minutes incubation, 0.5 mM IBMX
T1 construct: expressed in transfected cells
Text: I. Determination of the Ability of the Compound of the Present Invention to Stimulate Human GLP1 Receptor Stable Transgenic Cell Lines to Produce cAMP
The purpose of this test example is to determine the ability of the compound to activate the human GLP-1 receptor on the cell surface. The EC50 that stimulates […] after agonism characterizes the compound's ability to activate the human GLP-1 receptor.
The frozen human GLP1 receptor stable transgenic cell line CHO-K1/GLP-1R/CRE-luc was taken from the liquid nitrogen tank, quickly thawed in a 37° C. water bath, resuspended with DMEM/F12 medium, centrifuged, and washed once. The cells were resuspended with the experimental buffer, namely DMEM/F12 medium containing 0.1% casein, and the experimental buffer was used to adjust the cell density. The cells were spread on spread on a 384-well plate at a density of 2500 cells/5 μL/well, and then to each well was added 2.5 μL of buffer-prepared IBMX working solution with a final concentration of IBMX of 0.5 mM, and 2.5 μL of the compound sample with gradient dilution (starting at 1000 nM, 3-fold dilution, 11 concentrations). The plate was centrifuged at 1000 rpm for 1 minute, shaken for 30 seconds to mix well, and incubated at room temperature for 30 minutes. Detection was performed using the Cisbio cAMP—Gs Dynamic kit. cAMP-d2 and Anti-cAMP-Eu^3+-Cryptate were diluted 20-fold with cAMP Lysis & Detection Buffer, respectively, and mixed well. To each well was added 5 μL diluted cAMP-d2 solution, and then added 5 μL diluted Anti-cAMP-Eu3^+-Cryptate solution. The plate was shaken for 30 seconds, and incubated at room temperature for 1 hour in the dark. The signal reading of HTRF was performed using the Biotek Synergy H1 microplate reader with an excitation wavelength of 320 nm and emission wavelengths of 620 nm and 665 nm.
The signal ratio (665 nm/620 nm*10,000) was calculated, and the signal ratio and sample concentration were nonlinearly fitted using a four-parameter equation in GraphPad Prism 6 to obtain the EC50 value.

[3] = early clinical practice; cited from earlier work
[4] = Pharmacokinetic assay of SD rats; type: in vivo; details: Sprague-Dawley, rat, po; male SD rats, plasma, dose 50 mg/kg (b1219 prints 5 mg/kg)
Experimental: SD rats were used as test animals. The pharmacokinetic behavior of the following example compounds was studied in the plasma of rats administered orally at a dose of 50 mg/kg.
Vehicle formula: 0.5% CMC-Na (1% Tween 80);
Three SD rats per group, male. […]
Before and after administration, 0.2 mL of blood was collected from the jugular vein at 0, 0.25, 0.5, 1, 2, 4, 6, 8 and 24 hours, placed in EDTA-K2 tubes, centrifuged at 6000 rpm at 4° C. for 6 min to separate the plasma. The plasma samples were stored at −80° C. The […] was fed 4 hours after the administration.
• 1) 160 μL of acetonitrile was added to 40 μL of the plasma sample for precipitation, and then the mixture was centrifuged at 3500×g for 5-20 min. • 2) After the above process, 100 μL of the supernatant was taken to analyze the concentration of the test compound by LC/MS/MS.
• Liquid chromatography condition: Shimadzu LC-20AD pump Mass spectrometry condition: AB Sciex API 4000 mass spectrometer Chromatographic column: phenomenex Gemiu 5 μm C18 50×4.6 mm • Mobile phase: Eluent A was 0.1% formic acid in water, and Eluent B was methanol • Flow rate: 1.0 mL/min • Elution time: 0-4.0 minutes, the eluent is as follows:
The main pharmacokinetic parameters were calculated using WinNonlin 8.2.

T1 sequence (P43220 24-463): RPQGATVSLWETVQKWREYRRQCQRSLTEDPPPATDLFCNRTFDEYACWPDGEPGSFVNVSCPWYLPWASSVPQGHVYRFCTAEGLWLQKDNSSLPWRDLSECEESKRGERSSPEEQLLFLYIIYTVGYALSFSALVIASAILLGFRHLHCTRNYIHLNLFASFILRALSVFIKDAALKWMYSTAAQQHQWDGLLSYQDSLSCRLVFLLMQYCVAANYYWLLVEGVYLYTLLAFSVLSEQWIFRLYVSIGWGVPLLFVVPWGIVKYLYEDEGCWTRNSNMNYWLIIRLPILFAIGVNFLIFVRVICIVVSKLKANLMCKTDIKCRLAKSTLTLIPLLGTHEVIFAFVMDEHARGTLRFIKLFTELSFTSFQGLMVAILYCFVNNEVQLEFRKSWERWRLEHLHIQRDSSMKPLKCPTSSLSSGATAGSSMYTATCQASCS

SMILES | Blood glucose decline rate of AUC % [1] [%] | Weight (g)-D0 Mean ([2]; the 3rd table) [g] | Weight (g)-D10 Mean ([2]; the 3rd table) [g] | Body weight change(%)-D10 Mean ([2]; the 3rd table) [%] | EC50 (human GLP-1 receptor) [nM] | Weight (g)-D0 Mean ([2]; the 4th table) [g] | Eeight (g)-D10 Mean ([2]; the 4th table) [g] | Body weight change(%)-D10 Mean ([2]; the 4th table) [%] | hypoglycemic and weight reducing effects [3] | AUC(0-inf) [4] [ng·h/mL] | AUC(0-t) [4] [ng·h/mL] | Cmax [4] [ng/mL] | Tmax [4] [h] | half-life [4] [h]
[2H][C@]1(c2ccc(Cl)cc2F)C=Cc2cccc(C3CCN(Cc4nc5ccc(C(=O)O)nc5n4C[C@@H]4CCO4)CC3)c2O1 [Example 42, 2-((4-((R)-2-(4-Chloro-2-fluorophenyl)-2H-chromen-8-yl-2-d)piperidin-1-yl)methyl)-3-(((S)-oxetan-2-yl)methyl)-3H-imidazolo[4,5-b]pyridine-5-carboxylic acid] | 56.79 | 28.54 | 26.04 | −8.75 | 0.07 |  |  |  |  |  |  |  |  | 
[2H]C([2H])([2H])Oc1cc(Cl)ccc1[C@@]1([2H])C=Cc2cccc(C3CCN(Cc4nc5ccc(C(=O)O)nc5n4C[C@@H]4CCO4)CC3)c2O1 [Example 43, 2-((4-((R)-2-(4-Chloro-2-(methoxy-d3)phenyl)-2H-chromen-8-yl-2-d)piperidin-1-yl)methyl)-3-(((S)-oxetan-2-yl)methyl)-3H-imidazolo[4,5-b]pyridine-5-carboxylic acid] | 46.57 |  |  |  | 0.05 | 28.37 | 26.57 | −6.37 |  |  |  |  |  | 
[2H]C([2H])([2H])Oc1cc(Cl)ccc1[C@@]1([2H])C=C(F)c2cccc(C3CCN(Cc4nc5ccc(C(=O)O)nc5n4C[C@@H]4CCO4)CC3)c2O1 [Example 41, 2-((4-((R)-2-(4-Chloro-2-(methoxy-d3)phenyl)-4-fluoro-2H-chromen-8-yl-2-d)piperidin-1-yl)methyl)-3-(((S)-oxetan-2-yl)methyl)-3H-imidazolo[4,5-b]pyridine-5-carboxylic acid] | 53.09 | 28.54 | 26.20 | −8.19 | 0.04 |  |  |  |  |  |  |  |  | 
N#Cc1ccc(COc2cccc(C3CCN(Cc4nc5ccc(C(=O)O)cc5n4C[C@@H]4CCO4)CC3)n2)c(F)c1 [PF-06882961] |  |  |  |  |  |  |  |  | significant hypoglycemic and weight reducing effects |  |  |  |  | 
O=C(O)c1ccc2nc(CN3CCC(c4cccc5c4O[C@@H](c4ccc(Cl)cc4F)C=C5)CC3)n(C[C@@H]3CCO3)c2n1 [Example 48, 2-((4-((R)-2-(4-Chloro-2-fluorophenyl)-2H-chromen-8-yl)piperidin-1-yl)methyl)-3-(((S)-oxetan-2-yl)methyl)-3H-imidazolo[4,5-b]pyridine-5-carboxylic acid] | 62.89 |  |  |  | 0.03 | 28.23 | 25.85 | −8.44 |  | 19100 | 19100 | 6400 | 2 | 3.8
